Test systems include 786-0 renal; EKVX NSCLC; HT29 colon; K-562 leukemia; MDA-MB-435; NCI-H460 lung; NCI/ADR-RES ovarian; OVCAR-3 ovarian; OVCAR-8 ovarian; PC-3 prostate; RPMI-8226 leukemia; RXF 393 renal; SF-268 CNS; SF-539 CNS; SK-MEL-5 melanoma; SN12C renal; SNB-19 CNS; TK-10 renal; UACC-62 melanoma; NCI-H522 lung.
Common to all, as to assay: NCI anticancer screen, dose series, 48 h

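How tested: cells in 96-well plates exposed to compound for 48 hours at five concentrations. The concentration for full growth arrest is given as TGI.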

As to `CC(=O)OC(OC(C)=O)c1c2ccccc2cc2ccccc12`, the TGI with 786-0 renal is 43.5 µM; with EKVX NSCLC it was 50.4 µM; with HT29 colon, 28.6 µM; in the assay with K-562 leukemia, 27.8 µM; in the assay on MDA-MB-435, greater than 100 µM; in the assay on NCI-H460 lung it was 31.8 µM. Moreover, the TGI in the assay with NCI/ADR-RES ovarian came out at 46.7 µM; in the assay with OVCAR-3 ovarian, 67.3 µM; with OVCAR-8 ovarian, 41.8 µM; in the assay with PC-3 prostate, 90.5 µM; in the assay on RPMI-8226 leukemia, 87.2 µM; with RXF 393 renal, 31 µM. Moreover, the TGI with SF-268 CNS is 51.8 µM; in the assay on SF-539 CNS it was 36.1 µM; in the assay on SK-MEL-5 melanoma, 25.8 µM; in the assay on SN12C renal, 63.4 µM; in the assay with SNB-19 CNS, 96.3 µM; in the assay on TK-10 renal it was 61.2 µM. For the same compound, the TGI with UACC-62 melanoma was 41.7 µM.
Consider `CS(=O)(=O)c1ccc(C(=O)O[C@@H]2C(=O)N3CC[C@H]4OC(O)[C@@H]2[C@H]43)cc1` (some centres not stated), for which the TGI in the assay on 786-0 renal, in the assay on EKVX NSCLC, in the assay on HT29 colon, in the assay with K-562 leukemia, in the assay with MDA-MB-435 and in the assay on NCI-H460 lung was greater than 100 µM throughout. For the same compound, the TGI in the assay on NCI/ADR-RES ovarian, with OVCAR-3 ovarian, in the assay on OVCAR-8 ovarian, with PC-3 prostate, in the assay with RPMI-8226 leukemia and in the assay with RXF 393 renal was greater than 100 µM each time. Further, the TGI in the assay on SF-268 CNS, with SF-539 CNS, with SK-MEL-5 melanoma, in the assay on SNB-19 CNS, with TK-10 renal and in the assay on UACC-62 melanoma was greater than 100 µM each time.
In the case of `COC(=O)c1ccc(NCC2=CC(=O)C=CC2=O)cc1O`, the TGI was 31.4 µM in the assay with 786-0 renal; 31.6 µM with EKVX NSCLC; 38.6 µM with HT29 colon; greater than 100 µM in the assay on K-562 leukemia; 82.9 µM with MDA-MB-435; 43.4 µM with NCI-H460 lung. Moreover, the TGI was 47 µM in the assay on NCI/ADR-RES ovarian; 24.7 µM in the assay with OVCAR-3 ovarian; 30.8 µM in the assay on OVCAR-8 ovarian; greater than 100 µM with PC-3 prostate; 44 µM in the assay with RXF 393 renal; greater than 100 µM with SF-268 CNS. The TGI was 28 µM with SF-539 CNS; 80.1 µM in the assay with SK-MEL-5 melanoma; 66.5 µM in the assay on SN12C renal; 48.3 µM in the assay on SNB-19 CNS; 27.9 µM in the assay with TK-10 renal; 30.4 µM in the assay on UACC-62 melanoma.
Consider `C=C(C)[C@@]12C[C@H](OC(=O)[C@H](O)[C@@H](NC(=O)c3ccccc3)c3ccccc3)C(C)=C1[C@@H](OC(C)=O)C(=O)[C@@]1(C)C([C@@H]2OC(=O)c2cc(F)cc(F)c2)C2(OC(C)=O)CO[C@@H]2C[C@@H]1O` (some centres not stated), for which the TGI is 3.3 µM in the assay on 786-0 renal; greater than 10 µM in the assay with EKVX NSCLC; 1.4 µM with HT29 colon; greater than 6.66 µM in the assay with K-562 leukemia; 0.0818 µM with MDA-MB-435; 9.22 µM in the assay on NCI-H460 lung. In addition, the TGI was 6.63 µM in the assay on NCI/ADR-RES ovarian; 1.92 µM with OVCAR-3 ovarian; greater than 4.03 µM in the assay with OVCAR-8 ovarian; greater than 10 µM with PC-3 prostate; 0.547 µM in the assay with RPMI-8226 leukemia; 0.582 µM with RXF 393 renal. Besides, the TGI with SF-268 CNS was greater than 7.16 µM; in the assay with SF-539 CNS, 0.259 µM; with SK-MEL-5 melanoma, greater than 10 µM; with SN12C renal, greater than 4.51 µM; in the assay with SNB-19 CNS, greater than 10 µM; in the assay with TK-10 renal, 9.66 µM. The compound further came in with a TGI in the assay with UACC-62 melanoma of 3.26 µM.
With `Cc1cn(CCCCOC(=O)NC(CCCN=C(N)N)C(=O)O)c(=O)[nH]c1=O` (configuration not stated), the TGI with 786-0 renal, in the assay on EKVX NSCLC, in the assay on HT29 colon, in the assay with K-562 leukemia, with MDA-MB-435 and in the assay on NCI-H460 lung was greater than 100 µM each time. In addition, the TGI with NCI/ADR-RES ovarian, with OVCAR-3 ovarian, with OVCAR-8 ovarian, in the assay on PC-3 prostate, with RPMI-8226 leukemia and in the assay on RXF 393 renal was greater than 100 µM in each case. Further, the TGI with SF-268 CNS, in the assay on SF-539 CNS, with SN12C renal, in the assay on SNB-19 CNS, with TK-10 renal and with UACC-62 melanoma was greater than 100 µM throughout.
For the compound `Cc1cc(OP2(=O)NCc3ccncc3O2)ccc1Cl` (configuration not stated), the TGI with 786-0 renal, with EKVX NSCLC, in the assay on HT29 colon, with K-562 leukemia, with MDA-MB-435 and with NCI-H460 lung was greater than 100 µM in each case. Moreover, the TGI in the assay with NCI/ADR-RES ovarian, in the assay on OVCAR-3 ovarian, in the assay on OVCAR-8 ovarian, with PC-3 prostate, in the assay with RPMI-8226 leukemia and in the assay with RXF 393 renal was greater than 100 µM throughout. Besides, the TGI in the assay with SF-539 CNS, in the assay on SK-MEL-5 melanoma, with SN12C renal, in the assay with SNB-19 CNS and in the assay on UACC-62 melanoma was greater than 100 µM in each case.
With `COc1ccc(N[C@H](CS(=O)c2ccc(C)cc2)C(F)(F)F)cc1` (some centres not stated), the TGI with 786-0 renal, in the assay with EKVX NSCLC, in the assay with HT29 colon, in the assay on K-562 leukemia, in the assay on MDA-MB-435 and in the assay with NCI-H460 lung was greater than 100 µM each time. Besides, the TGI in the assay on NCI-H522 lung, in the assay with NCI/ADR-RES ovarian, in the assay on OVCAR-3 ovarian, in the assay on OVCAR-8 ovarian, in the assay with PC-3 prostate and with RXF 393 renal was greater than 100 µM throughout. Moreover, the TGI in the assay on SF-539 CNS, in the assay on SK-MEL-5 melanoma, with SN12C renal, in the assay with SNB-19 CNS, in the assay on TK-10 renal and in the assay on UACC-62 melanoma was greater than 100 µM each time.

(Values after PubChem BioAssay (NCI).)
